Structures can show the parent of a compound that is named as a salt.

For 26 molecules, IC50 results are on record in patent US20110224231A1, “Novel Lactams as Beta Secretase Inhibitors” (Pfizer Inc., priority 2008, published 2011).

T1 sequence (P56817 46-457 limits assumed): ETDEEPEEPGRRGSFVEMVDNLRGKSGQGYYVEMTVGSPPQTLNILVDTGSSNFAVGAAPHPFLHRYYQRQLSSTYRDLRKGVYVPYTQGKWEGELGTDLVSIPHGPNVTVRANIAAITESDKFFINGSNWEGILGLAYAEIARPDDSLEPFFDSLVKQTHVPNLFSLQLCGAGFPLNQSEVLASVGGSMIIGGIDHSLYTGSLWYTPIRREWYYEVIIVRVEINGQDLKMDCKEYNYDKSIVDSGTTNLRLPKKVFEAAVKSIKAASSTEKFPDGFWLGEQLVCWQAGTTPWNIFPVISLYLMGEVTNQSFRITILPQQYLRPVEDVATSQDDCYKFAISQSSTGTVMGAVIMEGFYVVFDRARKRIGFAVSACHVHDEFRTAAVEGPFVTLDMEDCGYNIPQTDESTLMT

The first assay concerns the target T1, soluble human BACE (Homo sapiens, UniProt P56817).
T1 construct: cells secreting human recombinant soluble BACE; made in house; conditioned medium
The experiment in a line: BACE activity Cell Free Assay (ELISA of cleaved synthetic APP substrate). The format is biochemical.
Conditions: not given
On the technique in general: An ELISA detects its analyte on a solid surface through an enzyme-linked reagent.
The IC50 is the point on the concentration scale where inhibition reaches its midpoint. `C[C@H]1C[C@@]2(C=CC(=O)N2c2cccc(F)c2)CCN1Cc1ccc(O)c(Cl)c1` [#201] yielded a half-maximal inhibitory concentration (IC50) of 1000 to 10000 nM. Turning to `Cc1ccccc1-c1cc(CN2CC[C@]3(C=CC(=O)N3c3cccc(F)c3)C[C@@H]2C)ccc1O` [#202], the IC50 was in the range of 1 to 1000 nM.

`CC[C@@H](C)Oc1cccc(CN2CC[C@]3(C=CC(=O)N3c3cccc(F)c3)C[C@@H]2C)c1` [#203] came in with a concentration for half-maximal inhibition (IC50) of 1000 to 10000 nM. Consider `CC(C)C(=O)c1cc(CN2CC[C@]3(C=CC(=O)N3c3cccc(F)c3)C[C@@H]2C)ccc1O` [#204], for which the concentration for half-maximal inhibition (IC50) lay within 1000 to 10000 nM.

On to `CC(C)C(O)c1cc(CN2CCC3(C=CC(=O)N3c3cccc(F)c3)CC2C)ccc1O` (centres unmarked) [#205], for which the concentration for half-maximal inhibition (IC50) lay within 1 to 1000 nM.

Regarding `C[C@H]1C[C@@]2(C=CC(=O)N2c2cccc(F)c2)CCN1Cc1ccc(O)c(-c2ccccc2Cl)c1` [#206], the IC50 lay within 1 to 1000 nM.

Molecule `C[C@H]1C[C@@]2(C=CC(=O)N2c2cccc(F)c2)CCN1Cc1ncoc1-c1ccccc1` [#207] gave an IC50 of 10000 to 100000 nM. Same read-out and setting: with `C[C@H]1C[C@@]2(C=CC(=O)N2c2cccc(F)c2)CCN1Cc1ccc(O)c(-c2ccccc2F)c1` [#208] the figure was 1 to 1000 nM; with `Cc1ccc(F)cc1-c1cc(CN2CC[C@]3(C=CC(=O)N3c3cccc(F)c3)C[C@@H]2C)ccc1O` [#209], 1 to 1000 nM. Same read-out and setting: with `C[C@H]1C[C@@]2(C=CC(=O)N2c2cccc(F)c2)CCN1Cc1scnc1CC1CC1` [#210] the figure was 1 to 1000 nM. Same read-out and setting: with `C[C@H]1C[C@@]2(C=CC(=O)N2c2cccc(F)c2)CCN1Cc1scnc1CC1CCC1` [#211] the figure was 1 to 1000 nM. `Cc1ccsc1-c1cc(CN2CC[C@]3(C=CC(=O)N3c3cccc(F)c3)C[C@@H]2C)ccc1O` [#212] had a 50% inhibitory concentration (IC50) of 1 to 1000 nM. The same measure, in the same setting: with `CC(C)Cc1ocnc1CN1CC[C@]2(CCC(=O)N2c2cccc(F)c2)C[C@@H]1C` [#213] the figure was 10000 to 100000 nM; with `C[C@H]1C[C@@]2(CCC(=O)N2c2cccc(F)c2)CCN1Cc1ccc(O)c(Cl)c1` [#214], 1000 to 10000 nM; with `Cc1ccccc1-c1cc(CN2CC[C@]3(CCC(=O)N3c3cccc(F)c3)C[C@@H]2C)ccc1O` [#215], 1 to 1000 nM.

In turn, `CC[C@@H](C)Oc1cccc(CN2CC[C@]3(CCC(=O)N3c3cccc(F)c3)C[C@@H]2C)c1` [#216] returned an IC50 of 1000 to 10000 nM.

In the case of `Cc1ccsc1-c1cc(CN2CC[C@]3(CCC(=O)N3c3cccc(F)c3)C[C@@H]2C)ccc1O` [#217], the IC50 fell in the range of 1000 to 10000 nM. `CC(C)Oc1cc(CN2CC[C@]3(C=CC(=O)N3c3cccc(F)c3)C[C@@H]2C)ccc1O` [Example 87, (5R7S)-1-(3-fluorophenyl)-8-(4-hydroxy-3-isopropoxybenzyl)-7-methyl-1,8-diazaspiro[4,5]dec-3-en-2-one hydrochloride] had an IC50 of 1 to 1000 nM.

Molecule `Cc1ccccc1-c1cccc(CN2CC[C@]3(CCC(=O)N3c3cccc(F)c3)C[C@@H]2C)c1` [Example 88, (5R,7S)˜1˜(3˜fluorophenyl)˜7˜methyl˜8˜[(2′˜methylbiphenyl˜3˜yl)methyl]˜1,8˜diazaspiro[4.5]decan˜2˜one hydrochloride] yielded an IC50 of 1000 to 10000 nM. As for `CC(C)Oc1cc(CN2CC[C@]3(CCC(=O)N3c3cccc(F)c3)C[C@@H]2C)ccc1O` [Example 89, (5R,7S)˜1˜(3˜fluorophenyl)˜8˜(4˜hydroxy˜3˜isopropoxybenzyl)˜7˜methyl˜1,8˜diazaspiro[4.5]decan˜2˜one hydrochloride], the half-inhibitory concentration (IC50) lay within 1 to 1000 nM. Same read-out and setting: with `CC(C)Oc1cccc(CN2CC[C@]3(CC(C)C(=O)N3c3cccc(F)c3)C[C@@H]2C)c1` (stereo partly drawn) [Example @96, (5R,7S)˜1˜(3˜Fluorophenyl)˜8˜(3˜isopropoxybenzyl)˜3,7˜dimethyl˜1,8˜diazaspiro[4.5]decan˜2˜one, hydrochloride salt] the figure was 10000 to 100000 nM; with `CC(C)Oc1cc(CN2CC[C@]3(C=C(c4ccccc4)C(=O)N3c3cccc(F)c3)C[C@@H]2C)ccc1O` [Example @97, (5R,7S)-1-(3-Fluorophenyl)-8-(4-hydroxy-3-isopropoxybenzyl)-7-methyl-3-phenyl-1,8-diazaspiro[4.5]dec-3-en-2-one, hydrochloride salt], 1000 to 10000 nM. The same measure, in the same setting: in the case of `CC1=C[C@]2(CCN(Cc3ccc(O)c(OC(C)C)c3)[C@@H](C)C2)N(c2cccc(F)c2)C1=O` [Example @98, (5R,7S)-1-(3-Fluorophenyl)-8-(4-hydroxy-3-isopropoxybenzyl)-3,7-dimethyl-1,8-diazaspiro[4.5]dec-3-en-2-one, hydrochloride salt] it was 1 to 1000 nM.

Still in this assay, the particulars now being: Table 6; cell free, soluble human BACE, pH 4.5, 3 μM substrate; read-out: BACE Activity (Cell Free Assay IC50).
On to `CC(C)Oc1cccc(CN2CC[C@]3(C=CC(=O)N3CC3CC3)C[C@@H]2C)c1` [Example @93, (5R,7S)-1-(cyclopropylmethyl)-8-(3-isopropoxybenzyl)-7-methyl-1,8-diazaspiro[4.5]dec-3-en-2-one], for which the IC50 was 100000 to 300000 nM. As to `CCCN1C(=O)C=C[C@]12CCN(Cc1cccc(OC(C)C)c1)[C@@H](C)C2` [Example @94, (5R,7S)˜8˜(3˜isopropoxybenzyl)˜7˜methyl˜1˜propyl˜1,8-diazaspiro[4.5]dec˜3˜en˜2˜one], the IC50 was in the range of 100000 to 300000 nM.

`CC(C)Oc1cccc(CN2CC[C@]3(C=CC(=O)N3C3CC3)C[C@@H]2C)c1` [Example @95, (5R,7S)-1-Cyclopropyl-8-(3-isopropoxybenzyl)-7-methyl-1,8-diazaspiro[4.5]dec-3-en-2˜one, trifluoroacetate salt]: the half-inhibitory concentration (IC50) fell in the range of 100000 to 300000 nM.
